These results are taken from patent US12539284B2, “Aminoxy acid-based anti-cancer stem cell compounds and methods thereof” (Westlake University, priority 2019, dated 2026).

One experiment concerns HEY A8 CSCs (HEY A8 SP). As to the kind of experiment: Toxicity / cell viability (CellTiter-Glo) on HEY A8 spheres (CSCs). To be noted: for selectivity towards ovarian CSCs over ovarian cancer cells and normal cells: from IC50 values, FIG. 4 and Table 1. It is filed as cell-based, human. The procedure: Aminoxy acids were synthesized by the standard peptide coupling procedures. The CSCs are obtained by spheroids culturing under suspension condition. It is confirmed that these spheres indeed contain significant higher population of cells with CD133 antigenic phenotype, which has been reported can represent ovarian CSCs (FIG. 2). After treatment with compounds for 48 h, the cell viability of CSCs was measured by using CELLTITER-GLO® luminescent reagent. Compound sff-3-85 (“Example 2”) were used at the dose of 10 μM, all the other compounds were used at the concentration of 5 μM. All experiments were performed three times and data is presented as mean±SD.
(§1) Cell Cultures Human ovarian carcinoma cell lines HEY A8 and SKOV3 were gifts from Professor Alice Wong's group (The University of Hong Kong). Cells were grown in Dulbecco's Modified Eagle (DMEM) medium supplemented with 10% FBS and 1% penicillin/streptomycin at 37° C. in a humidified atmosphere containing […] CO2. Isolation and culture of spheres were performed in serum-free stem-cell-selective condition as described in literature Ip etl. Oncogene 2014, 5, 9133-9149. Briefly, 1-2 weeks after plating, non-adherent spherical clusters of cells could be observed and were separated from single cells by low speed centrifugation. After 8th to 10th passages, the non-adherent spherical clusters of cells appeared as distinct spheres. Using this selection condition, HEY A8 spheres (HEY A8 SP) or SKOV3 spheres (SKOV3 SP) could be enzymatically dissociated and reformed into spheres within 3 days under stem-cell-selective condition. To allow differentiation, dissociated sphere cells were plated on tissue culture plates in medium (MCDB 105:M199=1:1) supplemented with 10% FBS and 1% PS.
(§2) HEY A8 SP cells (5×10^4) were plated in triplicate in 10 mL serum-free MCDB105 medium in 100-mm Petri dish for 7 days to form spheres. Compound at the final concentration of 5 μM was added. The cells were further incubated at 37° C. for 48 h. After that cells were collected by centrifugation and the medium was removed. Then 100 μL CellTiter-Glo® Luminescent Cell Viability reagent was added into each tube, which was incubated for 10 min with shaking. After that, the reagent was transferred into 96-well plates and cell viability was measured using a microplate reader (SpectraMax 340PC 384, Molecular Devices).
as §2, with “A8 SP cells or SKOV3” for “A8”, “Then drugs” for “Compound”, “different” for “the final”, “were” for “of 5 μM was”, “μL of” for “μL”

In experiment [1] the test system is HEY A8 CSCs. As to the kind of experiment: Apoptosis, Annexin V / PI flow cytometry, CSCs. In kind it is cell-based, human. To be noted: 5 μM, 2 days; DMSO 4.92%. On the procedure: A suspension of HEY A8 cells at the concentration of 5×10^4 cells/mL in DMEM medium were seeded into 60-mm cell culture dishes. Cells were incubated at 37° C. in a humidified atmosphere containing 5% CO2 for 24 h followed by the addition of 4 mL fresh medium or medium containing compound sff-2-112 (“Example 1”) or sff-2-132 (“Example 4”) at different concentration. Medium containing 0.1% DMSO was used as negative control. After 2 days, the medium was aspirated and cells were washed with cold PBS twice, and then stained with PI and Annexin V according to the manufacture's instruction (Dead Cell Apoptosis Kit with Annexin V Alexa Fluor™ 488 & Propidium Iodide, Thermo Fisher). Cells were analyzed by flow cytometry (BD FACS CantoII Analyzer).

A further experiment relates to SKOV3 cancer cells. As to the kind of experiment: Cell viability (CellTiter-Glo) on adherent SKOV3 cancer cells. It is filed as cell-based, human. To be noted: 48 h incubation. On the procedure:
as §1
(§3) HEY A8 or SKOV3 cancer Cells were plated in triplicate in 0.1 mL full medium in 96-well plates for 24 h. After that, the medium was changed to the fresh prepared medium with various concentrations of compounds. Cells were incubated for another 48 h. Then the cell viability was measured by CellTiter-Glo® Luminescent Cell Viability reagent according to the manufacture's instruction. The luminescence at 550 nm was measured using a microplate reader (SpectraMax 340PC 384, Molecular Devices).

Another experiment relates to MDCK. As to the kind of experiment: Toxicity against normal cell line MDCK. It is filed as cell-based. From the text: (§4) Fourteen compounds including aminoxy acid monomers and dipeptides have been identified to show toxicity against HEY A8 CSCs. The half maximal inhibitory concentration (IC50) values of compounds sff-2-112, sff-2-124, sff-2-132 and sff-2-100 towards adherent cancer HEY A8, SKOV3 cells and CSCs were further determined. […] Especially compound sff-2-132, its selectivity to CSCs is up to 60-fold higher than that to cancer cells. Their toxicity against other normal cell lines NIH3T3, HEK293 and MDCK were also tested and the IC50 values were summarized in Table 1.

In experiment [2] the test system is Huh 7 cancer stem cells (CD133+). Briefly: Cell viability (CellTiter-Glo) of sorted Huh 7 CD133+ cells. In kind it is cell-based. The following applies: 48 h. The procedure: (§5) Huh-7 cells were stained with PE-conjugated CD133 antibody (HCC cancer stem cell marker) according to the manufacturer's instructions. Then CD133^+ cells (Huh 7 cancer stem cells) and CD133− cells were sorted by flow cytometry and seeded into 96-well plate with fresh DMEM medium. After 24 h, medium was changed to fresh medium with compound sff-2-112 (“Example 1”) or sff-2-124 (“Example 3”) at different doses. After 48 h, cell viability was analyzed by CellTiter-Glo luminescent agent.

The test system of the next experiment is Huh 7 CD133- cells. Briefly: Cell viability (CellTiter-Glo) of sorted Huh 7 CD133- cells. It is filed as cell-based. The following applies: 48 h, different doses. The procedure: as §5
The test system of a further experiment is NIH3T3. Briefly: Toxicity against normal cell line NIH3T3. In kind it is cell-based.
Description: as §4

The next experiment concerns HEY A8 cancer cells. Briefly: Cell viability (CellTiter-Glo) on adherent HEY A8 cancer cells. In kind it is cell-based, human. The following applies: read-out: IC50 Cancer Cell HeyA8. The procedure:
as §1, §3

The next experiment concerns HEK293. As to the kind of experiment: Toxicity against normal cell line HEK293. It is filed as cell-based.
Description: as §4

The test system of a further experiment is HEY A8 cells. As to the kind of experiment: Population of CD133+ cells by flow cytometry (PE-conjugated CD133 antibody). To be noted: Paclitaxel 100 nM, 3 days; control 21.8%. It is filed as cell-based, human. The procedure: CD133 has been reported to be a marker of ovarian CSCs. After cells treated with synthetic molecule, the population of CD133^+ cells were measured. HEY A8 cells were treated with taxol (100 nM), compound sff-2-112 (“Example 1”) or sff-2-132 (“Example 4”) at the concentration of 15 μM. Medium containing 0.1% DMSO was used as a negative control.
A suspension of HEY A8 cells at the concentration of 2.5×10^4 cells/mL in DMEM medium were seeded into 60-mm cell culture dishes. Cells were incubated at 37° C. in a humidified atmosphere containing 5% CO2 for 24 h, followed by the addition of 4 mL fresh medium or medium containing Paclitaxel (100 nM), sff-2-112 (15 μM) or compound sff-2-132 (15 μM). Medium containing 0.1% DMSO was used as a negative control. After 3 days, the medium was removed and cells were washed with cold PBS twice, and then stained with PE-conjugated CD133 antibody according to the manufacture's instruction. The fluorescence was analyzed by flow cytometry.

The test system of experiment [3] is HEY A8 CSCs. As to the kind of experiment: In vivo tumor seeding ability of pretreated HEY A8 CSCs. The following applies: CSCs pretreated 2 days in vitro, 10^6 cells injected subcutaneously in mice, 25 days. The procedure: In vivo tumor seeding ability of cells after treatment with compound sff-2-112 (“Example 1”) or sff-2-132 (“Example 4”) was evaluated. Taxol was used as a negative control. For this experiment, HEY A8 CSCs were pretreated with sff-2-112 (“Example 1”), sff-2-132 (“Example 4”) or Taxol for 2 days in suspension medium, respectively. Then cells were allowed to proliferate in full medium in the absence of drugs for 10 days. After that, 10^6 cells were injected into mice subcutaneously. Tumor size was measured for 25 days after injection.

Where two headings read alike, the source gives them in different places.

On to `O=C(NO[C@H](COCc1ccccc1)C(=O)Nc1ccc(F)cc1)c1cc(C(F)(F)F)cc(C(F)(F)F)c1` [sff-3-86], for which the “cell viability of HEY A8 CSCs (toxicity)” value in the experiment on HEY A8 CSCs (HEY A8 SP) (compound 5 μM, 48 h) was “significantly decreased the cell viability”. Further, the “Annexin V positive cells, CSCs” value with HEY A8 CSCs [1] is 30.4%.
Regarding `CC(C)C[C@@H](ONC(=O)c1cc(C(F)(F)F)cc(C(F)(F)F)c1)C(=O)Nc1ccccc1` [sff-2-124], the concentration for half-maximal inhibition (IC50) in the experiment on SKOV3 cancer cells stood at 18.6 ± 5.1 µM; with MDCK it was 13.2 ± 0.9 µM; with NIH3T3, 15.1 ± 0.5 µM; with HEY A8 cancer cells (48 h incubation) it was 20.8 ± 0.9 µM; in the experiment on HEK293, 67.2 ± 4.2 µM. Further, the “toxicity to huh7 CD133+ population compared with CD133- cells” value in experiment [2] was “higher”. Also, the “death of Huh 7 CD133+ cells” value in [2] (different doses) is listed as “induce the death”. Further, the “cell viability of HEY A8 CSCs (toxicity)” value in the experiment with HEY A8 CSCs (HEY A8 SP) (compound 5 μM, 48 h) is given as “significantly decreased the cell viability”. Moreover, the “selectivity towards ovarian CSCs over ovarian cancer cells and normal cells” value in the experiment with HEY A8 CSCs (HEY A8 SP) is on record as “selectively induce the death of ovarian CSCs”. The “death of Huh 7 CD133- cells” value in the experiment on Huh 7 CD133- cells is “induce the death”.
In the case of `CC(=O)O[C@H]1C(=O)[C@@]2(C)[C@H]([C@H](OC(=O)c3ccccc3)[C@]3(O)C[C@H](OC(=O)[C@H](O)[C@@H](NC(=O)c4ccccc4)c4ccccc4)C(C)=C1C3(C)C)[C@]1(OC(C)=O)CO[C@@H]1C[C@@H]2O` [paclitaxel, reference compound], the “population of CD133+ cells after treatment” value in the experiment on HEY A8 cells is 31.6%. Also, the “tumor-seeding ability / tumor size of pretreated cells” value with HEY A8 CSCs [3] is “resistant”.
On to `CC(C)COC(=O)[C@@H](COCc1ccccc1)ONC(=O)c1cc(C(F)(F)F)cc(C(F)(F)F)c1` [sff-3-87], for which, in the experiment with HEY A8 CSCs (HEY A8 SP) (compound 5 μM, 48 h), the “cell viability of HEY A8 CSCs (toxicity)” value was “significantly decreased the cell viability”.
In the case of `CC(C)(C)Oc1ccc(C[C@@H](ONC(=O)c2cc(C(F)(F)F)cc(C(F)(F)F)c2)C(=O)Nc2ccccc2)cc1` [sff-3-101], in the experiment on HEY A8 CSCs (HEY A8 SP) (compound 5 μM, 48 h), the “cell viability of HEY A8 CSCs (toxicity)” value was “significantly decreased the cell viability”.
Still for that read-out and setting: the entry for `O=C(NO[C@H](COCc1ccccc1)C(=O)Nc1ccccc1)c1ccc(C(F)(F)F)cc1` [sff-3-91] is “significantly decreased the cell viability”.
Take `O=C(NO[C@H](Cc1cc2ccccc2[nH]1)C(=O)Nc1ccccc1)c1cc(C(F)(F)F)cc(C(F)(F)F)c1` [Amy-1-8]: the “cell viability of HEY A8 CSCs (toxicity)” value with HEY A8 CSCs (HEY A8 SP) (compound 5 μM, 48 h) is listed as “significantly decreased the cell viability”.
Consider `O=C(NO[C@H](COCc1ccccc1)C(=O)NO[C@@H](Cc1ccccc1)C(=O)Nc1ccccc1)c1cc(C(F)(F)F)cc(C(F)(F)F)c1` [sff-2-100], for which the IC50 in the experiment with MDCK (Canis lupus familiaris, MDCK) was found to be 18 ± 0.7 µM; in the experiment with HEY A8 CSCs (HEY A8 SP) (Homo sapiens, HEY A8 spheres, 48 h incubation, read-out: IC50 Cancer Stem Cell HeyA8 SP), 2.8 ± 0.9 µM; with NIH3T3 (Mus musculus, NIH3T3), 2.8 ± 0.9 µM; with HEY A8 cancer cells (Homo sapiens, HEY A8, 48 h incubation), 22.4 ± 1 µM; in the experiment with HEK293 (Homo sapiens, HEK293) it was 18.3 ± 0.6 µM. For the same molecule, in the experiment with HEY A8 CSCs (HEY A8 SP) (5 μM, 48 h), the “rank of toxicity among the 14 molecules on HEY A8 CSCs” value is “highest toxicity”. In addition, in the experiment with HEY A8 CSCs (HEY A8 SP) (compound 5 μM, 48 h), the “cell viability of HEY A8 CSCs (toxicity)” value is on record as “significantly decreased the cell viability”. Moreover, in the experiment on HEY A8 CSCs (HEY A8 SP), the “selectivity towards ovarian CSCs over ovarian cancer cells and normal cells” value is listed as “selectively induce the death of ovarian CSCs”.
Take `CC(OCc1ccccc1)[C@@H](ONC(=O)c1cc(C(F)(F)F)cc(C(F)(F)F)c1)C(=O)Nc1ccccc1` (stereo partly shown) [sff-3-98-2]: the “cell viability of HEY A8 CSCs (toxicity)” value in the experiment with HEY A8 CSCs (HEY A8 SP) (compound 5 μM, 48 h) is “significantly decreased the cell viability”.
Regarding `C[C@H](ONC(=O)c1cc(C(F)(F)F)cc(C(F)(F)F)c1)C(=O)Nc1ccccc1` [sff-3-85], in the experiment with HEY A8 CSCs (HEY A8 SP) (compound 10 μM, 48 h), the “cell viability of HEY A8 CSCs (toxicity)” value was “significantly decreased the cell viability”.
As to `CCC(C)[C@@H](ONC(=O)c1cc(C(F)(F)F)cc(C(F)(F)F)c1)C(=O)Nc1ccccc1` (stereo partly shown) [Amy-1-4], the “cell viability of HEY A8 CSCs (toxicity)” value in the experiment on HEY A8 CSCs (HEY A8 SP) (compound 5 μM, 48 h) is “significantly decreased the cell viability”.
For `CC(C)(C)OC[C@@H](ONC(=O)c1cc(C(F)(F)F)cc(C(F)(F)F)c1)C(=O)Nc1ccccc1` [sff-3-100], the “cell viability of HEY A8 CSCs (toxicity)” value with HEY A8 CSCs (HEY A8 SP) (compound 5 μM, 48 h) is “significantly decreased the cell viability”.
As to `O=C(NO[C@H](COCc1ccccc1)C(=O)NOc1ccccc1)c1cc(C(F)(F)F)cc(C(F)(F)F)c1` [FPM-1-187], in the experiment on HEY A8 CSCs (HEY A8 SP) (compound 5 μM, 48 h), the “cell viability of HEY A8 CSCs (toxicity)” value is on record as “significantly decreased the cell viability”.
